The values below come from patent US20070021419A1, “2-Aminophenyl-4-phenylpyrimidines as kinase inhibitors” (Cyclacel Limited, priority 2003, published 2007).

For one assay, the target named is CDK2/cyclin E (Homo sapiens, UniProt P24941). In words: Kinase assay, radioactive phosphate incorporation, CDK2/cyclin E. Format: biochemical. The note with it: 100 μM ATP, 30° C.; read-out: Kinase inhibition IC50 CDK2/cyclin E. Summed up: (§1)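 Recombinant kinase complexes (2-4 μg active enzyme) were incubated at 30° C with polypeptide substrates in buffer of 25 mM β-glycerophosphate, 20 mM MOPS, 5 mM EGTA, 1 mM DTT, 1 mM […], pH 7.4. Reactions began with 15 mM MgCl2 plus 100 μM ATP spiked with [γ-32P]-ATP. Substrate-incorporated radioactivity was counted after filter capture.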

The target in the next assay is CDK7/cyclin H (Homo sapiens, UniProt P50613). In words: Kinase assay, radioactive phosphate incorporation, CDK7/cyclin H. Format: biochemical. To be noted: 100 μM ATP, 30° C.; read-out: Kinase inhibition IC50 CDK7/cyclin H. In short, it runs like this: as §1
Chain of CDK7/cyclin H (P50613 whole entry, species assumed): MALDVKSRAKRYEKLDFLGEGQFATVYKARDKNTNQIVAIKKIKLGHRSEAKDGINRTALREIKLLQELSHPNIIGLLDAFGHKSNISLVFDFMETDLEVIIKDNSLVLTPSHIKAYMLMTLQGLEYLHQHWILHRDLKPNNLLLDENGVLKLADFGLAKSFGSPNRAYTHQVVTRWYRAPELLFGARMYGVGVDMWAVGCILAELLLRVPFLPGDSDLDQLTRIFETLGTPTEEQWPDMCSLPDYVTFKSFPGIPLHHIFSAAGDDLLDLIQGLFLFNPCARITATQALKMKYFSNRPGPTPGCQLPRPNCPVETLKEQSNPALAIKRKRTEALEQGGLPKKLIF
Chain of CDK7/cyclin H (P51946 whole entry partner, species assumed): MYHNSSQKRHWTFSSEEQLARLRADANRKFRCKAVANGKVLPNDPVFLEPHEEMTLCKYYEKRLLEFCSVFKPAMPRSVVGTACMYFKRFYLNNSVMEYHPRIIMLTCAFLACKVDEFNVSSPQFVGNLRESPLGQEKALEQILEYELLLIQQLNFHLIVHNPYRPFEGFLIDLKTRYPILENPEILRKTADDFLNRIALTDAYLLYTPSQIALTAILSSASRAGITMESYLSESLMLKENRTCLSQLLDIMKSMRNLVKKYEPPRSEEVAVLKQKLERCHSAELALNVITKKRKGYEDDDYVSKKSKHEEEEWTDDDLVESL
The target of a further assay is CDK9/cyclin T1 (Homo sapiens, UniProt P50750). In words: Kinase assay, radioactive phosphate incorporation, CDK9/cyclin T1. In kind it is biochemical. The note with it: 100 μM ATP, 30° C.; read-out: Kinase inhibition IC50 CDK9/cyclin T1. Summed up:
as §1

The target in a further assay is GSK3β (Homo sapiens, UniProt P49841). In words: Kinase assay, radioactive phosphate incorporation, GSK3β. In kind it is biochemical. To be noted: 100 μM ATP, 30° C.; read-out: Kinase inhibition IC50 GSK3β. In short, it runs like this: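 Steps: enzyme (2-4 μg) plus substrate in pH 7.4 buffer with DTT and vanadate; start with 100 μM ATP/15 mM MgCl2 containing [γ-32P]-ATP; incubate at 30° C; stop on ice; filter, wash with 75 mM orthophosphoric acid; scintillation count. Compounds diluted from DMSO stocks into 10% DMSO buffer.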
Chain of GSK3β (P49841 whole entry, species assumed): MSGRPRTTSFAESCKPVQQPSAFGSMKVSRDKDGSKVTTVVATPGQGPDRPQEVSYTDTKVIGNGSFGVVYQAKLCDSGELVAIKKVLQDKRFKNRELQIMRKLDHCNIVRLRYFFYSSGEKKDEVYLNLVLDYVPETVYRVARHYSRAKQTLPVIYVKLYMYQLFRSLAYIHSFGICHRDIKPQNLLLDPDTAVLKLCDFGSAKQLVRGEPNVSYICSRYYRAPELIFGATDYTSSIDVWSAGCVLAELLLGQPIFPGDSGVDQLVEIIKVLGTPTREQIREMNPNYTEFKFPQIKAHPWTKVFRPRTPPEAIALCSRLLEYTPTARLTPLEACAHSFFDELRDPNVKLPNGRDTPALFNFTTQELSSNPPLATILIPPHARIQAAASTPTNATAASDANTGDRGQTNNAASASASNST

In another assay the target is T1, Aurora-A (Homo sapiens, UniProt O14965).
T1 sequence (O14965 1-403): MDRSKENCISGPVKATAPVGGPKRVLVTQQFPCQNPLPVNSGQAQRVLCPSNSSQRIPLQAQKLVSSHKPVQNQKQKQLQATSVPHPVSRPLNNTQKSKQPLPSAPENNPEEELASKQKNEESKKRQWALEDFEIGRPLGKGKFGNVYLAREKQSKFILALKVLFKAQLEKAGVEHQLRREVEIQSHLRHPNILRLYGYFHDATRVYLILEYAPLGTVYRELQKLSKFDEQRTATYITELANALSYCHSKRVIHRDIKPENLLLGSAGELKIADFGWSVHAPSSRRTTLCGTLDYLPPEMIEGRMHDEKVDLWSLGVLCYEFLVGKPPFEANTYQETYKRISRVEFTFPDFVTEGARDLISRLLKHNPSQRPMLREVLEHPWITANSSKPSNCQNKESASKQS
In words: Kinase assay, radioactive phosphate incorporation, Aurora-A. The note with it: 100 μM ATP, 30° C.; read-out: Kinase inhibition IC50 Aurora-A. In kind it is biochemical. Here is the method: The compounds from the examples above were investigated for their ability to inhibit the enzymatic activity of various protein kinases. This was achieved by measurement of incorporation of radioactive phosphate from ATP into appropriate polypeptide substrates. Recombinant protein kinases and kinase complexes were produced or obtained commercially. Assays were performed using 96-well plates and appropriate assay buffers (typically 25 mM β-glycerophosphate, 20 mM MOPS, 5 MM EGTA, 1 mM DTT, 1 mM Na3VO3, pH 7.4), into which were added 2-4 μg of active enzyme with appropriate substrates. The reactions were initiated by addition of Mg/ATP mix (15 mM MgCl2+100 μM ATP with 30-50 kBq per well of [γ-^32P]-ATP) and mixtures incubated as required at 30° C. Reactions were stopped on ice, followed by filtration through p81 filterplates or GF/C filterplates (Whatman Polyfiltronics, Kent, UK). After washing 3 times with 75 mM aq orthophosphoric acid, plates were dried, scintillant added and incorporated radioactivity measured in a scintillation counter (TopCount, Packard Instruments, Pangbourne, Berks, UK). Compounds for kinase assay were made up as 10 mM stocks in DMSO and diluted into 10% DMSO in assay buffer.

A further assay deals with A549. In words: 72-h MTT cytotoxicity assay, A549. To be noted: Homo sapiens, read-out: 72-h MTT IC50 A549, A549 cell line. Format: cell-based. Summed up: (§2)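 The read-out is MTT reduction: 4 h dark incubation with MTT from a 5 mg/mL stock, then dye solubilised in DMSO. This followed 72 h at 37° C exposure to a 1/3 dilution series of compound in triplicate. Wells were seeded according to doubling time and rested overnight before dosing.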
Background: Tetrazolium assays rely on reduction of a dye to a coloured formazan, in cell work by metabolically active cells.

In another assay the test system is HT29. In words: 72-h MTT cytotoxicity assay, HT29. Format: cell-based. To be noted: Homo sapiens, HT-29, read-out: 72-h MTT IC50 HT29, HT29 cell line. In short, it runs like this: as §2
The subject of the next assay is Saos-2. In words: 72-h MTT cytotoxicity assay, Saos-2. In kind it is cell-based. The note with it: Homo sapiens, read-out: 72-h MTT IC50 Saos-2, Saos-2 cell line. Summed up:
as §2

The subject of assay [1] is transformed human cell lines (A549, HT29, Saos-2). In words: 72-h MTT cytotoxicity assay, average of cell lines. The note with it: read-out: 72-h MTT IC50 Average, average of A549, HT29, Saos-2. Format: cell-based. Summed up: as §2
In the next assay the target is CDK2/cyclin A (Homo sapiens, UniProt P24941). In words: Kinase assay, radioactive phosphate incorporation, CDK2/cyclin A. The note with it: 100 μM ATP, 30° C.; read-out: Kinase inhibition IC50 CDK2/cyclin A. In kind it is biochemical. In short, it runs like this: as §1
For a further assay, the target named is CDK4/cyclin D1 (Homo sapiens, UniProt P11802). In words: Kinase assay, radioactive phosphate incorporation, CDK4/cyclin D1. In kind it is biochemical. To be noted: 100 μM ATP, 30° C.; read-out: Kinase inhibition IC50 CDK4/cyclin D1. In short, it runs like this: as §1
Chain of CDK4/cyclin D1 (P11802 whole entry, species assumed): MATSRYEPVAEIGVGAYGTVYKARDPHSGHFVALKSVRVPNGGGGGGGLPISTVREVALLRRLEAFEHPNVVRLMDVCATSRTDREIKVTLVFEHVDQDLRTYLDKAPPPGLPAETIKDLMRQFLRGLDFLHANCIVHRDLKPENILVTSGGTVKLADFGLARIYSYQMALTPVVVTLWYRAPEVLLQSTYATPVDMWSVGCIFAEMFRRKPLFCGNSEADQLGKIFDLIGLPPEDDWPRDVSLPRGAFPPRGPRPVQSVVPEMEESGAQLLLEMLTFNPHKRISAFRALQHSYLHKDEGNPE
Chain of CDK4/cyclin D1 (P24385 whole entry partner, species assumed): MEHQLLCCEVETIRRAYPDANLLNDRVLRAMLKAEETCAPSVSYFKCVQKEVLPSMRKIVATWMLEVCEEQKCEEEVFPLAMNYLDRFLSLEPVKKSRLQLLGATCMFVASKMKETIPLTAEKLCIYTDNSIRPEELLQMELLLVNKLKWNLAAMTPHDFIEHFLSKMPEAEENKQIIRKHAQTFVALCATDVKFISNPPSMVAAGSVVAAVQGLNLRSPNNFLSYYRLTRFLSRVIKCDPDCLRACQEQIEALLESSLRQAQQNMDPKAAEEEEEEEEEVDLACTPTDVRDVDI

Chain of CDK9/cyclin T1 (P50750 whole entry, species assumed): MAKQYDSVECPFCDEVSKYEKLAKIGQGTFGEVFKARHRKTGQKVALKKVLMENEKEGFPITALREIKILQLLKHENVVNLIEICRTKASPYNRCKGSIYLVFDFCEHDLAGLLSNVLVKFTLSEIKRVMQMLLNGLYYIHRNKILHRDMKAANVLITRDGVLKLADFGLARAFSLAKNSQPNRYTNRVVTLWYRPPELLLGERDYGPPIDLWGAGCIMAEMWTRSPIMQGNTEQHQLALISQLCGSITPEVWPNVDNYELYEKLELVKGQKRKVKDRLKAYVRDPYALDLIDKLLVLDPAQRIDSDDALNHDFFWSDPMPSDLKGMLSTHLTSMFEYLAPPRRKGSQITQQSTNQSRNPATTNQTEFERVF
Chain of CDK9/cyclin T1 (O60563 whole entry partner, species assumed): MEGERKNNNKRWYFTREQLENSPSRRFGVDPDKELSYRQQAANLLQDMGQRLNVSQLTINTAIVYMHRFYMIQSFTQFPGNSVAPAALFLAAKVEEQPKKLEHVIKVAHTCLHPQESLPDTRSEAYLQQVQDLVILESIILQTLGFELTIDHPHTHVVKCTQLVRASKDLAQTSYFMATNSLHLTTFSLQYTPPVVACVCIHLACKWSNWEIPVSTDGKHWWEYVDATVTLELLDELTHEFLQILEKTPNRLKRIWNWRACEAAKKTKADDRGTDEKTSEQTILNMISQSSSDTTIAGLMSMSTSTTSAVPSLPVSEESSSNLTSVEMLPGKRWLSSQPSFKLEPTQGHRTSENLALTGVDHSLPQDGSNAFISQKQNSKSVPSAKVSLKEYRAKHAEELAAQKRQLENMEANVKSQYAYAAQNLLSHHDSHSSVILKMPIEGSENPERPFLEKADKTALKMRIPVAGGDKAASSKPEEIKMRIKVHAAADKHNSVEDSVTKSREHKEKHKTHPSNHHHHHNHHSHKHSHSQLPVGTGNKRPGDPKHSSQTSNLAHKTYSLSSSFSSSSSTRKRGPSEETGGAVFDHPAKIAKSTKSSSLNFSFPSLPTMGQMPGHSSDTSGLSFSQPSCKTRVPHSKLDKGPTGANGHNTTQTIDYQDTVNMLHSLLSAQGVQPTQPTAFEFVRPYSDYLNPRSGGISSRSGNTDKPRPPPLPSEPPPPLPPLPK

For the compound `O=[N+]([O-])c1cccc(Nc2nccc(-c3cccc(CN4CCCC4CNc4ccccc4)c3)n2)c1` (stereo not drawn) [Compound 86, (3-Nitro-phenyl)-{4-[3-(2-phenylaminomethyl-pyrrolidin-1-ylmethyl)-phenyl]-pyrimidin-2-yl}-amine], the IC50 on CDK2/cyclin E is 810 nM; at CDK7/cyclin H it was 0.67 µM; at CDK9/cyclin T1, 130 nM; on GSK3β, 160 nM; at Aurora-A, 2400 nM; in the assay on A549, 49.3 µM. In addition, the IC50 stood at 8.9 µM in the assay on HT29, 55.8 µM with Saos-2 and 38 ± 25.4 µM in assay [1].
As for `CS(=O)(=O)c1cccc(Nc2nccc(-c3cccc(Cn4cncn4)c3)n2)c1` [Compound 104, (3-Methanesulfonyl-phenyl)-[4-(3-[1,2,4]triazol-1-ylmethyl-phenyl)-pyrimidin-2-yl]-amine], the IC50 at CDK7/cyclin H turned out to be 6.4 µM; at CDK9/cyclin T1 it was 60 nM; at GSK3β it was 280 nM; on Aurora-A, 1500 nM.
`CCOc1ccc(-c2ccnc(Nc3cccc(O)c3)n2)cc1` [Compound 109, 3-[4-(4-Ethoxy-phenyl)-pyrimidin-2-ylamino]-phenol]: the IC50 on CDK2/cyclin A came to 2000 nM; at CDK9/cyclin T1, 140 nM; on Aurora-A, 700 nM.
Consider `O=[N+]([O-])c1cccc(Nc2nccc(-c3cccc(Cl)c3)n2)c1` [Compound 112, [4-(3-Chloro-phenyl)-pyrimidin-2-yl]-(3-nitro-phenyl)-amine], for which the IC50 at CDK9/cyclin T1 was determined as 70 nM; on GSK3β, 160 nM; on Aurora-A it was 2600 nM.
Take `OCc1cccc(-c2ccnc(Nc3cccc(O)c3)n2)c1` [Compound 115, 3-[4-(3-Hydroxymethyl-phenyl)-pyrimidin-2-ylamino]-phenol]: the IC50 on CDK2/cyclin A turned out to be 2000 nM; at CDK7/cyclin H it was 3.1 µM; at CDK9/cyclin T1 it was 40 nM; on GSK3β, 70 nM; on Aurora-A, 720 nM.
`COc1cccc(-c2ccnc(Nc3cccc(F)c3)n2)c1` [Compound 118, (3-Fluoro-phenyl)-[4-(3-methoxy-phenyl)-pyrimidin-2-yl]-amine]: the figures for the IC50 on CDK9/cyclin T1 and at Aurora-A were 20 nM and 1800 nM, respectively.
For `Oc1ccc(Nc2nccc(-c3cccc(O)c3)n2)cc1` [Compound 122, 3-[2-(4-Hydroxy-phenylamino)-pyrimidin-4-yl]-phenol], in that order: 190 nM and 6 nM.
Consider `COc1ccc(Nc2nccc(-c3cccc(CO)c3)n2)cn1` [Compound 125, {3-[2-(6-Methoxy-pyridin-3-ylamino)-pyrimidin-4-yl]-phenyl}-methanol], for which the IC50 was 5.9 µM at CDK7/cyclin H, 120 nM at CDK9/cyclin T1, 40 nM at GSK3β and 960 nM on Aurora-A.
Take `O=[N+]([O-])c1cccc(Nc2nccc(-c3ccc(CCn4cncn4)cc3)n2)c1` [Compound 126, (3-Nitro-phenyl)-{4-[4-(2-[1,2,4]triazol-1-yl-ethyl)-phenyl]-pyrimidin-2-yl}-amine]: the results for the IC50 on CDK9/cyclin T1, at GSK3β and on Aurora-A were 90 nM, 10 nM and 340 nM, respectively.
`O=[N+]([O-])c1cccc(Nc2nccc(-c3ccc(CN4CCCCC4CO)cc3)n2)c1` (stereo not drawn) [Compound 127, (1-{4-[2-(3-Nitro-phenylamino)-pyrimidin-4-yl]-benzyl}-piperidin-2-yl)-methanol]: the IC50 on CDK9/cyclin T1 was 900 nM; at Aurora-A, 1100 nM.
As to `COc1ccc(Nc2nccc(-c3cccc(N(C)S(C)(=O)=O)c3)n2)cn1` [Compound 132, N-{3-[2-(6-Methoxy-pyridin-3-ylamino)-pyrimidin-4-yl]-phenyl}-N-methyl-methanesulfonamide], the IC50 at CDK4/cyclin D1 came out at 2100 nM; at CDK7/cyclin H, 3.9 µM; on CDK9/cyclin T1, 60 nM; at GSK3β, 170 nM; at Aurora-A, 390 nM.
